Data from patent publication US9023837B2, “Androgen induced oxidative stress inhibitors” (Colby Pharmaceutical Company, priority 2010, dated 2015).
Where “and” joins values, the source holds several entries; their conditions need not be identical. Identical values can stand only once. Entries after “also recorded” stand apart in the source; their conditions may differ.

Columns and labels:
LNCaP cells [1] = experiment: DCF dye oxidation assay, ROS in LNCaP cells; assay type: cell-based, human
Text: Described herein are tests for the effect of these three compounds on the androgen-induced ROS production in androgen-dependent LNCaP cells using the DCF dye oxidation assay (see the complete proposal). All data were normalized to the DCF dye fluorescence of control untreated LNCaP cells and expressed as percent of control.
(§1) Culture conditions for LNCaP androgen response studies included use of cells passage 40-90, hormone depleted media containing 4% charcoal-stripped FBS plus 1% non-stripped FBS (F1C4), and synthetic androgen R1881 (methyltrienolone; NEN, Boston, Mass.) at 1 nM for maximal induction of JunD and ROS as described before (17,19,20). For AR-JunD interaction studies in AR-transfected Hep3B cells, R1881 was used at 2 nM in F1C4 medium to maximally induce the AR.
(§2) Graded concentrations of each of the 8-10 designed peptides identified herein are further tested for their ability to inhibit growth of androgen-dependent LNCaP and LAPC-4 cells using a DNA fluorescence assay and androgen-induced ROS using DCFH dye oxidation assay.

LNCaP cells [2] = experiment: growth inhibition of LNCaP cells; assay type: cell-based, human; set-up: concentration range of cell growth inhibition: unit not given here; details: presence and absence of R1881
Description: as §1, §2

[3] = molecular target: T1, Androgen Receptor Ligand Binding Domain (AR-LBD) (Rattus norvegicus, UniProt P15207); experiment: fluorescence polarization assay for AR-LBD binding; details: bicalutamide positive control
T1 sequence (P15207 651-882 limits assumed): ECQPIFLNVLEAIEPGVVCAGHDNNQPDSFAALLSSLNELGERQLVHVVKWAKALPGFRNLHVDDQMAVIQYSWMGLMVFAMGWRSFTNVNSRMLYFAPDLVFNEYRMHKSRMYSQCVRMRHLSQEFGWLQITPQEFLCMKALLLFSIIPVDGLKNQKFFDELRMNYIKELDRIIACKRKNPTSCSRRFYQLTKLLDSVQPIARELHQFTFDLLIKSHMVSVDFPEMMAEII
Description: Binding of bicalutamide with AR-LBD was used as a positive control.
Bicalutamide is used as a positive control.

human CaP cells = experiment: androgen-induced ROS production in human CaP cells; assay type: cell-based; details: pretreatment
Text: (§3) Described herein are molecules, such as for example, N,N′-butadienyl-butanediamine inhibitor of APAO or one of its pro-drugs or analogs, as shown in the figures disclosed herein in this application. […] SSAT promoter sequence, however, contains no AR-binding element (ARE).

[4] = tested on: TRansgenic Adenocarcinoma in Mouse Prostate (TRAMP) animals; experiment: TRAMP mouse model of prostate cancer; assay type: in vivo
Text: as §3

SSAT promoter = SSAT promoter luciferase reporter in LNCaP cells; assay type: cell-based, human; details: 1 nM R1881, 72 h
Description: The full length (FL) SSAT promoter sequence, kindly provided by Dr. Robert Casero (Johns Hopkins University, Baltimore, Md.), was amplified and cloned into pGL4-basic vector (Promega) with a firefly luciferase reporter gene. This vector, pGL4-SSAT-luc, was transiently transfected into our published (20) JunD-silenced (siJunD) and vector control LNCaP cell lines. Briefly, 5×10^5 siJunD or vector control LNCaP cells were seeded, then transfected one day later with […] pGL4-SSAT-luc DNA construct using Lipofectamine2000 (Invitrogen). After transfection, cells were treated with 1 nM R1881 or left untreated for 72 h, then lysed. Luciferase activity was measured in cell lysates by a luciferase assay system kit (Promega) following the manufacturer-supplied protocol.
The effect of AR activation by androgen on transcriptional activity of full length SSAT promoter and the necessity of JunD for such effect was studied in LNCaP cells stably transfected with either junD silenced (siJunD) or control vector that were then transiently transfected with a full length SSAT promoter-firefly luciferase reporter vector (FLSSAT-luc) followed by androgen treatment (FIGS. 4A,B). Androgen treatment (1 nM R1881) caused a significant>16-fold increase in SSAT promoter activity in vector control LNCaP cells (Control) compared to corresponding untreated cells (FIG. 4A, P=0.03). […]

SSAT mRNA = SSAT mRNA by qRT-PCR in LNCaP cells; assay type: cell-based, human
Description: Quantitative RT-PCR analysis of SSAT mRNA levels are performed.
The effect of AR activation by androgen on transcriptional activity of full length SSAT promoter and the necessity of JunD for such effect was studied in LNCaP cells stably transfected with either junD silenced (siJunD) or control vector that were then transiently transfected with a full length SSAT promoter-firefly luciferase reporter vector (FLSSAT-luc) followed by androgen treatment (FIGS. 4A,B). Androgen treatment (1 nM R1881) caused a significant>16-fold increase in SSAT promoter activity in vector control LNCaP cells (Control) compared to corresponding untreated cells (FIG. 4A, P=0.03). […] There is an androgen-induced increase in SSAT mRNA (˜10-fold) in siJunD cells, but this increase is much less than that observed in vector control cells (˜25-fold).

JunD-AR complex = JunD-AR complex (Homo sapiens, UniProt P10275); details: Hep3B, 2 nM R1881, 48 h
Chain of JunD-AR complex (P10275 whole entry): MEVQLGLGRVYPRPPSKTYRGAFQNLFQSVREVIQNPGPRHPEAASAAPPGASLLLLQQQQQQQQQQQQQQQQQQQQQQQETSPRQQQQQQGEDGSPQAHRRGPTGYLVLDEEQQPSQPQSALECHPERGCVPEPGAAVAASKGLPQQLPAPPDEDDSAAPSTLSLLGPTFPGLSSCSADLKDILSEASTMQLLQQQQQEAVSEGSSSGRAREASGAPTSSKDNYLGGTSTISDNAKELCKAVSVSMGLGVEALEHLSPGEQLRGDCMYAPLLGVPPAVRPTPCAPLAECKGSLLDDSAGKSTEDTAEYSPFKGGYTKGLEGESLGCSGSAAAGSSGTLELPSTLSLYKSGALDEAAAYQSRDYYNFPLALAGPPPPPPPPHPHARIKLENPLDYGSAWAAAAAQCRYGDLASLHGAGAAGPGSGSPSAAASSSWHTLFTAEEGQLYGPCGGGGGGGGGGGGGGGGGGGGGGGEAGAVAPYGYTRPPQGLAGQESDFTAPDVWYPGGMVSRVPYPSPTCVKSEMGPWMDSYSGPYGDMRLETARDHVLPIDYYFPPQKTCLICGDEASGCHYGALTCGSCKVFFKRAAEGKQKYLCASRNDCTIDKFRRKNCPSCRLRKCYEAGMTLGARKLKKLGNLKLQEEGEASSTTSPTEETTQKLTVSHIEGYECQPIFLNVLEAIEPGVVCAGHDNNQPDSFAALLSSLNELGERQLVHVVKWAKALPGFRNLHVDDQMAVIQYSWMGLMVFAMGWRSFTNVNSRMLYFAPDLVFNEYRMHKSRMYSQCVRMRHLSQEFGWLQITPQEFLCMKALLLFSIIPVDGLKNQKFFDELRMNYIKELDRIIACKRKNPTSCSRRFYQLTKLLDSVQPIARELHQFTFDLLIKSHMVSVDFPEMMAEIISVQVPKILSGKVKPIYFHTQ
Chain of JunD-AR complex (P17535 whole entry partner): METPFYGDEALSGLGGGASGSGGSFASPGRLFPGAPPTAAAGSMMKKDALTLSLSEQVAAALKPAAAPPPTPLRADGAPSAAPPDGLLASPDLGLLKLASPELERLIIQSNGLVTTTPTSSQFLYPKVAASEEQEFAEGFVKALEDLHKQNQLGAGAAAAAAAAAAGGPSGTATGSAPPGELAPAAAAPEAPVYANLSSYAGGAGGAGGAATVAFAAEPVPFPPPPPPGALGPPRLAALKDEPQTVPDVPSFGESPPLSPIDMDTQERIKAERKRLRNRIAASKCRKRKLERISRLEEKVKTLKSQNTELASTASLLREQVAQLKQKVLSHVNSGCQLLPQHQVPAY
Description: The two vectors were co-transfected into Hep3B liver carcinoma cells with no AR background.
5×10^5 Hep3B cells were seeded, then one day later co-transfected with 3 g each of Gluc1-AR and JunD-Gluc2 constructs, or transfected with Gluc1-AR or JunD-Gluc2 alone as negative controls using Lipofectamine 2000 reagent (Invitrogen), following the manufacturer-supplied protocol. Two to three hours after transfection, cells were washed and refed DMEM without serum and treated with 2 nM R1881 for 48 h prior to collecting cell lysates. Corresponding untreated cells were used as negative controls.
Gaussia luciferase activity was measured in 25 μl of Hep3B cell lysates from R1881-treated or untreated control cells using a Gaussia luciferase assay kit from New England Biolabs (Ipswich, Mass.), following the manufacturer-supplied protocol.

AR-JunD immunocomplex = AR-JunD immunocomplex (Homo sapiens, UniProt P10275, T878A); details: IP:JunD/WB:AR, 1 nM R1881, 72 h, normalized to β-actin
Chain of AR-JunD immunocomplex (P10275 whole entry T878A): as the sequence (P10275 whole entry) above, with T878A counted along it
Chain of AR-JunD immunocomplex (P17535 whole entry partner): as the sequence (P17535 whole entry partner) above
Description: For whole cell lysates, LNCaP cells were lysed using modified RIPA buffer containing complete protease inhibitors (Roche Applied Sciences, Indianapolis, Ind.). Nuclear and cytoplasmic fractions were prepared and checked for purity using NE-PER Nuclear and Cytoplasmic extraction reagents (Thermo Scientific, Pierce Biotechnology, Rockford, Ill.) following manufacturer-supplied protocols. For immunoprecipitation, lysates were pre-cleared by incubation with 50% Protein A-agarose slurry (Pierce, Rockford, Ill.). Six g of AR antibody and 500 μl pre-cleared lysate (500 μg total protein) were mixed and rocked overnight at 4° C. The immunocomplex was captured with 100 μl of 50% protein A-agarose slurry, then analyzed by western blotting using JunD antibody. The same immunoprecipitation procedure was repeated for capturing the immunocomplex using JunD antibody and western blotting using AR antibody. Proper controls with IgG and protein A-agarose were run in parallel.
To specifically investigate the effect of androgen, LNCaP cell lysates were prepared after incubation with 1 nM R1881 for 72 h and analyzed for co-immunoprecipitation of AR and JunD.

NN(CC(=O)O)CC(=O)O
reduction of ROS levels in cells not treated with R1881 (LNCaP cells [1]; LNCaP without R1881): weak activity in reducing ROS levels
concentration of growth inhibition (LNCaP cells [2]): sub-micromolar
AR-LBD binding / anti-androgenic properties [3]: no AR-LBD binding property; also recorded: no anti-androgenic properties

O=C(O)CN(CC(=O)O)N1C(=O)c2ccccc2C1=O [2,2′-(1,3-dioxoisoindolin-2-ylazanediyl)diacetic acid]
concentration of growth inhibition (LNCaP cells [2]): sub-micromolar
AR-LBD binding / anti-androgenic properties [3]: no AR-LBD binding property; also recorded: no anti-androgenic properties

C=C=CCNCCCCNCC=C=C [N,N′-butadienyl-butanediamine]
androgen-induced ROS production (human CaP cells): completely blocks
CaP progression [4]: significantly prevents
oxidative stress in the prostate [4]: markedly reduces

C[C@]1(O)CC[C@H]2[C@@H]3CCC4=CC(=O)CCC4=C3C=C[C@@]21C [R1881, methyltrienolone]
increase in SSAT promoter activity (SSAT promoter; siJunD LNCaP): small increase
increase in SSAT promoter activity (SSAT promoter; vector control LNCaP): > 16 fold
increase in SSAT mRNA (treated/untreated) (SSAT mRNA; JunD silenced (siJunD) LNCaP cells): ~10 fold
increase in SSAT mRNA (treated/untreated) (SSAT mRNA; vector control LNCaP cells): ~25 fold and > 25 fold
increase in reconstituted Gaussia luciferase activity versus untreated cells (JunD-AR complex): ~10 fold and > 5 fold
increase of AR-JunD immunocomplex in nuclear fraction (AR-JunD immunocomplex): approximately 3 fold

COC(=O)CN(N)CC(=O)OC [dimethyl 2,2′-(hydrazine-1,1-diyl)diacetate]
effect on ROS levels under any condition (LNCaP cells [1]; LNCaP with or without R1881): no effect on the ROS levels
concentration range of cell growth inhibition (LNCaP cells [2]): 1-10
melting point: 166 °C
AR-LBD binding / anti-androgenic properties [3]: interaction with the AR-LBD that is comparable with that of bicalutamide
